Tests used:
[1] = molecular target: human Gal-3 (hGal-3) (Homo sapiens (Human), UniProt P17931); assay: Competitive binding assay: biotinylated hGal-3 to microplate-adsorbed asialofetuin (ASF); conditions: Activity on hGal-3; binding to ASF-coated plates, 3 hours at 4° C.; mean values
In short: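 Biotinylated hGal-3 (300-1000 ng/mL) binding to plate-adsorbed asialofetuin, with DMSO-diluted compound added, incubated 3 h at 4 °C. After washing, bound protein detected with streptavidin-peroxidase (80 ng/mL, 1 h, 4 °C) and ABTS substrate, read spectrophotometrically. IC50 given as mean of several measurements.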

[2] = molecular target: human Gal-1 (hGal-1) (Homo sapiens, UniProt P09382); assay: Competitive binding assay: biotinylated hGal-1 to microplate-adsorbed asialofetuin (ASF); conditions: Activities on hGal-1; binding to ASF-coated plates, 3 hours at 4° C.; mean values; read-out: Gal-1 IC50
human Gal-1 (hGal-1), sequence (P09382 2-135 limits assumed): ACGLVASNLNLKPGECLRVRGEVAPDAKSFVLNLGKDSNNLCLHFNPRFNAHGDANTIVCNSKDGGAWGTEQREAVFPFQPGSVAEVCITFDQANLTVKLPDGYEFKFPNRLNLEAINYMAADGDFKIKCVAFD
In short: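 Plate-adsorbed asialofetuin is incubated 3 h at 4 °C with biotinylated hGal-1, optionally its all-serine-substituted cysteine variant, plus compound dilutions. ABTS color after 1 h streptavidin-peroxidase (80 ng/mL) at 4 °C reports binding. Reported IC50 is a mean across repeat runs.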

human Gal-3 (hGal-3), sequence (P17931 whole entry): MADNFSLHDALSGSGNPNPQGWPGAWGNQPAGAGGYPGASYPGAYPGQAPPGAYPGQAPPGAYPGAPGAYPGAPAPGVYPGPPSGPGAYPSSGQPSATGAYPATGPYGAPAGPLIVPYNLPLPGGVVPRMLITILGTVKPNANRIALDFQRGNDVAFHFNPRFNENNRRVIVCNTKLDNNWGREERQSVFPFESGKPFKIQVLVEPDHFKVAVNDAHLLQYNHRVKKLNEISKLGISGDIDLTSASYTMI

SMILES | IC50 [1] [nM] | IC50 [2] [nM]
CO[C@@H]1[C@@H](n2cc(-c3ccc(C)c(F)c3F)nn2)[C@@H](O)[C@@H](CO)O[C@@H]1CC1=NO[C@]2(CC[C@@H](NC(=O)OC(C)(C)C)CC2)C1 [Example 1.44, tert-butyl ((5s,8S)-3-(((2R,3R,4S,5R,6R)-4-(4-(2,3-difluoro-4-methylphenyl)-1H-1,2,3-triazol-1-yl)-5-hydroxy-6-(hydroxymethyl)-3-methoxytetrahydro-2H-pyran-2-yl)methyl)-1-oxa-2-azaspiro[4.5]dec-2-en-8-yl)carbamate] | 100 | 4900
CO[C@@H]1[C@@H](n2cc(-c3ccc(Cl)c(F)c3F)nn2)[C@@H](O)[C@@H](CO)O[C@@H]1CC1=NO[C@]2(CC[C@H](NC(=O)OC(C)(C)C)CC2)C1 [Example 1.45, tert-butyl ((5r,8R)-3-(((2R,3R,4S,5R,6R)-4-(4-(4-chloro-2,3-difluorophenyl)-1H-1,2,3-triazol-1-yl)-5-hydroxy-6-(hydroxymethyl)-3-methoxytetrahydro-2H-pyran-2-yl)methyl)-1-oxa-2-azaspiro[4.5]dec-2-en-8-yl)carbamate] | 10 | 800
CO[C@@H]1[C@@H](n2cc(-c3ccc(Cl)c(F)c3F)nn2)[C@@H](O)[C@@H](CO)O[C@@H]1CC1=NO[C@]2(CC[C@@H](NC(=O)OC(C)(C)C)CC2)C1 [Example 1.46, tert-butyl ((5s,8S)-3-(((2R,3R,4S,5R,6R)-4-(4-(4-chloro-2,3-difluorophenyl)-1H-1,2,3-triazol-1-yl)-5-hydroxy-6-(hydroxymethyl)-3-methoxytetrahydro-2H-pyran-2-yl)methyl)-1-oxa-2-azaspiro[4.5]dec-2-en-8-yl)carbamate] | 60 | 1800
CO[C@@H]1[C@@H](n2cc(-c3cc(F)c(C)cc3F)nn2)[C@@H](O)[C@@H](CO)O[C@@H]1CC1=NOC2(CCCCC2)C1 [Example 1.47, (2R,3R,4S,5R,6R)-6-((1-oxa-2-azaspiro[4.5]dec-2-en-3-yl)methyl)-4-(4-(2,5-difluoro-4-methylphenyl)-1H-1,2,3-triazol-1-yl)-2-(hydroxymethyl)-5-methoxytetrahydro-2H-pyran-3-ol] | 430 | 2200
CO[C@@H]1[C@@H](n2cc(-c3ccc(F)c(F)c3F)nn2)[C@@H](O)[C@@H](CO)O[C@@H]1CC1=NOC2(CCC(C(C)(C)O)CC2)C1 (stereo partly drawn) [Example 1.48, (2R,3R,4S,5R,6R)-2-(hydroxymethyl)-6-((8-(2-hydroxypropan-2-yl)-1-oxa-2-azaspiro[4.5]dec-2-en-3-yl)methyl)-5-methoxy-4-(4-(2,3,4-trifluorophenyl)-1H-1,2,3-triazol-1-yl)tetrahydro-2H-pyran-3-ol] | 490 | 2600
CO[C@@H]1[C@@H](n2cc(-c3ccc(Cl)c(F)c3F)nn2)[C@@H](O)[C@@H](CO)O[C@@H]1CC1=NOC2(CCC(C#N)CC2)C1 (stereo partly drawn) [Example 1.49, 3-(((2R,3R,4S,5R,6R)-4-(4-(4-chloro-2,3-difluorophenyl)-1H-1,2,3-triazol-1-yl)-5-hydroxy-6-(hydroxymethyl)-3-methoxytetrahydro-2H-pyran-2-yl)methyl)-1-oxa-2-azaspiro[4.5]dec-2-ene-8-carbonitrile] | 110 | 1200
CO[C@@H]1[C@@H](n2cc(-c3ccc(F)c(F)c3F)nn2)[C@@H](O)[C@@H](CO)O[C@@H]1CC1=NOC2(CCC(C#N)CC2)C1 (stereo partly drawn) [Example 1.50, 3-(((2R,3R,4S,5R,6R)-5-hydroxy-6-(hydroxymethyl)-3-methoxy-4-(4-(2,3,4-trifluorophenyl)-1H-1,2,3-triazol-1-yl)tetrahydro-2H-pyran-2-yl)methyl)-1-oxa-2-azaspiro[4.5]dec-2-ene-8-carbonitrile] | 160 | 570
CO[C@@H]1[C@@H](n2cc(-c3ccc(C)c(F)c3F)nn2)[C@@H](O)[C@@H](CO)O[C@@H]1CC1=NOC2(CCC(C#N)CC2)C1 (stereo partly drawn) [Example 1.51, 3-(((2R,3R,4S,5R,6R)-4-(4-(2,3-difluoro-4-methylphenyl)-1H-1,2,3-triazol-1-yl)-5-hydroxy-6-(hydroxymethyl)-3-methoxytetrahydro-2H-pyran-2-yl)methyl)-1-oxa-2-azaspiro[4.5]dec-2-ene-8-carbonitrile] | 100 | 1900
CO[C@@H]1[C@@H](n2cc(-c3ccc(F)c(F)c3F)nn2)[C@@H](O)[C@@H](CO)O[C@@H]1CC1=NO[C@]2(CC[C@H](C(C)(C)O)CC2)C1 [Example 1.52, (2R,3R,4S,5R,6R)-2-(hydroxymethyl)-6-(((5r,8R)-8-(2-hydroxypropan-2-yl)-1-oxa-2-azaspiro[4.5]dec-2-en-3-yl)methyl)-5-methoxy-4-(4-(2,3,4-trifluorophenyl)-1H-1,2,3-triazol-1-yl)tetrahydro-2H-pyran-3-ol] | 260 | 2800
CO[C@@H]1[C@@H](n2cc(-c3ccc(F)c(F)c3F)nn2)[C@@H](O)[C@@H](CO)O[C@@H]1CC1=NO[C@]2(CC[C@@H](C(C)(C)O)CC2)C1 [Example 1.53, (2R,3R,4S,5R,6R)-2-(hydroxymethyl)-6-(((5s,8S)-8-(2-hydroxypropan-2-yl)-1-oxa-2-azaspiro[4.5]dec-2-en-3-yl)methyl)-5-methoxy-4-(4-(2,3,4-trifluorophenyl)-1H-1,2,3-triazol-1-yl)tetrahydro-2H-pyran-3-ol] | 270 | 1200
CO[C@@H]1[C@@H](n2cc(-c3ccc(C)c(F)c3F)nn2)[C@@H](O)[C@@H](CO)O[C@@H]1CC1=NOC2(CCC(C(C)(C)O)CC2)C1 (stereo partly drawn) [Example 1.54, (2R,3R,4S,5R,6R)-4-(4-(2,3-difluoro-4-methylphenyl)-1H-1,2,3-triazol-1-yl)-2-(hydroxymethyl)-6-((8-(2-hydroxypropan-2-yl)-1-oxa-2-azaspiro[4.5]dec-2-en-3-yl)methyl)-5-methoxytetrahydro-2H-pyran-3-ol] | 200 | 5400

The next lines start with the values.

IC50 [1] [nM] | IC50 [2] [nM] | SMILES
400 | 4400 | CO[C@@H]1[C@@H](n2cc(-c3ccc(Cl)c(F)c3F)nn2)[C@@H](O)[C@@H](CO)O[C@@H]1CC1=NOC2(CCC(C(C)(C)O)CC2)C1 (stereo partly drawn) [Example 1.55, (2R,3R,4S,5R,6R)-4-(4-(4-chloro-2,3-difluorophenyl)-1H-1,2,3-triazol-1-yl)-2-(hydroxymethyl)-6-((8-(2-hydroxypropan-2-yl)-1-oxa-2-azaspiro[4.5]dec-2-en-3-yl)methyl)-5-methoxytetrahydro-2H-pyran-3-ol]
120 | 3600 | CO[C@@H]1[C@@H](n2cc(-c3ccc(C)c(F)c3F)nn2)[C@@H](O)[C@@H](CO)O[C@@H]1CC1=NO[C@]2(CC[C@@H](C#N)CC2)C1 [Example 1.56, (5s,8S)-3-(((2R,3R,4S,5R,6R)-4-(4-(2,3-difluoro-4-methylphenyl)-1H-1,2,3-triazol-1-yl)-5-hydroxy-6-(hydroxymethyl)-3-methoxytetrahydro-2H-pyran-2-yl)methyl)-1-oxa-2-azaspiro[4.5]dec-2-ene-8-carbonitrile]
41 | 530 | CO[C@@H]1[C@@H](n2cc(-c3ccc(C)c(F)c3F)nn2)[C@@H](O)[C@@H](CO)O[C@@H]1CC1=NO[C@]2(CC[C@H](C#N)CC2)C1 [Example 1.57, (5r,8R)-3-(((2R,3R,4S,5R,6R)-4-(4-(2,3-difluoro-4-methylphenyl)-1H-1,2,3-triazol-1-yl)-5-hydroxy-6-(hydroxymethyl)-3-methoxytetrahydro-2H-pyran-2-yl)methyl)-1-oxa-2-azaspiro[4.5]dec-2-ene-8-carbonitrile]
110 | 640 | CO[C@@H]1[C@@H](n2cc(-c3ccc(F)c(F)c3F)nn2)[C@@H](O)[C@@H](CO)O[C@@H]1CC1=NO[C@]2(CC[C@@H](C#N)CC2)C1 [Example 1.58, (5s,8S)-3-(((2R,3R,4S,5R,6R)-5-hydroxy-6-(hydroxymethyl)-3-methoxy-4-(4-(2,3,4-trifluorophenyl)-1H-1,2,3-triazol-1-yl)tetrahydro-2H-pyran-2-yl)methyl)-1-oxa-2-azaspiro[4.5]dec-2-ene-8-carbonitrile]
130 | 220 | CO[C@@H]1[C@@H](n2cc(-c3ccc(F)c(F)c3F)nn2)[C@@H](O)[C@@H](CO)O[C@@H]1CC1=NO[C@]2(CC[C@H](C#N)CC2)C1 [Example 1.59, (5r,8R)-3-(((2R,3R,4S,5R,6R)-5-hydroxy-6-(hydroxymethyl)-3-methoxy-4-(4-(2,3,4-trifluorophenyl)-1H-1,2,3-triazol-1-yl)tetrahydro-2H-pyran-2-yl)methyl)-1-oxa-2-azaspiro[4.5]dec-2-ene-8-carbonitrile]
90 | 1600 | CO[C@@H]1[C@@H](n2cc(-c3ccc(Cl)c(F)c3F)nn2)[C@@H](O)[C@@H](CO)O[C@@H]1CC1=NO[C@]2(CC[C@@H](C#N)CC2)C1 [Example 1.60, (5s,8S)-3-(((2R,3R,4S,5R,6R)-4-(4-(4-chloro-2,3-difluorophenyl)-1H-1,2,3-triazol-1-yl)-5-hydroxy-6-(hydroxymethyl)-3-methoxytetrahydro-2H-pyran-2-yl)methyl)-1-oxa-2-azaspiro[4.5]dec-2-ene-8-carbonitrile]
49 | 460 | CO[C@@H]1[C@@H](n2cc(-c3ccc(Cl)c(F)c3F)nn2)[C@@H](O)[C@@H](CO)O[C@@H]1CC1=NO[C@]2(CC[C@H](C#N)CC2)C1 [Example 1.61, (5r,8R)-3-(((2R,3R,4S,5R,6R)-4-(4-(4-chloro-2,3-difluorophenyl)-1H-1,2,3-triazol-1-yl)-5-hydroxy-6-(hydroxymethyl)-3-methoxytetrahydro-2H-pyran-2-yl)methyl)-1-oxa-2-azaspiro[4.5]dec-2-ene-8-carbonitrile]

Source: US20230295182A1, “SPIRO DERIVATIVES OF ALPHA-D-GALACTOPYRANOSIDES” (Idorsia Pharmaceuticals Ltd, priority 2020, published 2023)
